Like-named read-outs stand apart in the source and are kept apart here.
Legend:
[1] = system: MiaPaCa-2 cells; assay: Cytotoxicity assay in MiaPaCa-2 (XTT, 72 h); assay type: cell-based; conditions: for IC50: XTT, read-out: Cell cytotoxicity assay IC50 in range; for inhibition at 1 µM / inhibition at 10 µM / Cell cytotoxicity assay (% Inhibition at 1 μM) / Cell cytotoxicity assay (% Inhibition at 10 μM): DMSO control = 0% inhibition; for inhibition at 1 µM: read-out: Cell cytotoxicity assay (% Inhibition at 1 μM); for inhibition at 10 µM: read-out: Cell cytotoxicity assay (% Inhibition at 10 μM)
Procedure: MiaPaCa-2 Cells (ATCC) were seeded in 96 well plates (Costar clear flat bottom) at a density of 3000 cells/well and allowed to settle overnight. Test compounds were dissolved in dimethyl sulphoxide (DMSO-Sigma Aldrich, D2650) and incubated with MiaPaCa-2 cells for 72 h. Post 72 h, 50 μl XTT (1 mg/mL; Invitrogen, X 6493) and PMS ([…]; Sigma Aldrich, P9625) reagents were added to the cells in 100 μl of cDMEM (Sigma Aldrich-D5648)+10% FBS (Hyclone-5430088-03)+1×Pen Strep (Sigma Aldrich-P0781). After 1 hour incubation with XTT and PMS absorbance was monitored with Spectramax M3 (Molecular Device). Percentage inhibition of proliferation at 10 μM and 1 μM concentrations was calculated by considering DMSO control as 0% inhibition. IC50 values were plotted using Graph pad prism software (Graph pad Inc, La Jola, Calif., USA).

[2] = target: T1, recombinant NAMPT wild type protein (Homo sapiens, UniProt P43490); assay: NAMPT fluorescence assay; assay type: biochemical; conditions: 50 ng NAMPT, 2 μM Nam, 10 point dose response; read-out: Fluorescence assay IC50 in range
T1 construct: made in house; host or cells: E. coli
Procedure: The enzymatic assay was standardized using in-house recombinant NAMPT wild type protein from E. coli expression & NAM (Cat #47865-U) as a substrate. The product NMN formed after enzymatic reaction was derivatized to a fluorescent derivative through sequentially reacting with acetophenone/KOH and formic acid. The derivatized fluorescent NMN derivative was detected at 382 nm excitation wavelength and a 445 nm emission wavelength. […] The fluorescence was measured (Excitation at 382 nm & Emission at 445 nm) using Victor^3 V fluorimeter. The data is calculated using the RFU values. The final concentration of DMSO was 2% in the assay. Each individual IC50 was determined using 10 point dose response curve generated by GraphPad Prism software Version 4 (San Diego, Calif., USA) using nonlinear regression curve fit for sigmoidal dose response (variable slope).

T1 sequence (P43490 whole entry): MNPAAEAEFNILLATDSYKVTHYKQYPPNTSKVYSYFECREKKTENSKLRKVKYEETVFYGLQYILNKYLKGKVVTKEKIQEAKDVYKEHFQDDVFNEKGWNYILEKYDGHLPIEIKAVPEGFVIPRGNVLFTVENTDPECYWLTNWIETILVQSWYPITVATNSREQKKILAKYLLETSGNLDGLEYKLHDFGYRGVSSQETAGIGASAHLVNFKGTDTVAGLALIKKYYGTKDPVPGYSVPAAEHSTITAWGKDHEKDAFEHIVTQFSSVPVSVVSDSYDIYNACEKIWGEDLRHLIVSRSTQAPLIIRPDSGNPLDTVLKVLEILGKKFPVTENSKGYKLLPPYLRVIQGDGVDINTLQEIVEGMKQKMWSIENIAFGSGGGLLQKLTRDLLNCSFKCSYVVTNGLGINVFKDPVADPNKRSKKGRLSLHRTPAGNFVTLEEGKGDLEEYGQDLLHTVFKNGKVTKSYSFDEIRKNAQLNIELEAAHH

SMILES | IC50 ([1]; Homo sapiens, MIA PaCa-2, 72 h) [nM] | IC50 [2] [nM] | inhibition at 1 µM ([1]; Homo sapiens, MIA PaCa-2, 72 h) [%] | inhibition at 10 µM ([1]; Homo sapiens, MIA PaCa-2, 72 h) [%] | IC50 [1] [nM] | Cell cytotoxicity assay (% Inhibition at 1 μM) [1] [%] | Cell cytotoxicity assay (% Inhibition at 10 μM) [1] [%]
Cn1cc(-c2cccnc2OCC2CC(CNC(=O)c3ccc4nccn4c3)=NO2)cn1 (racemic) [Example 1, N-((5-(((3-(1-methyl-1H-pyrazol-4-yl)pyridin-2-yl)oxy)methyl)-4,5-dihydroisoxazol-3-yl)methyl)imidazo[1,2-a]pyridine-6-carboxamide] | > 250 | < 10 | – | – | – | – | –
O=C(NCC1=NOC(COc2ncccc2-c2ccc(F)nc2)C1)c1ccc2nccn2c1 (racemic) [Example 2, N-((5-(((6′-fluoro-[3,3′-bipyridin]-2-yl)oxy)methyl)-4,5-dihydroisoxazol-3-yl)methyl)-imidazo[1,2-a]pyridine-6-carboxamide] | 50 to 250 | < 10 | 95 | 97 | – | – | –
O=C(NCC1=NOC(COc2ccncc2-c2ccc(F)nc2)C1)c1ccc2nccn2c1 (racemic) [Example 3, N-((5-(((6′-fluoro-[3,3′-bipyridin]-4-yl)oxy)methyl)-4,5-dihydroisoxazol-3-yl)methyl)-imidazo[1,2-a]pyridine-6-carboxamide] | > 250 | – | 5 | 80 | – | – | –
O=C(NCC1=NOC(COc2cccnc2-c2ccc(F)nc2)C1)c1ccc2nccn2c1 (racemic) [Example 4, N-((5-(((6′-fluoro-[2,3′-bipyridin]-3-yl)oxy)methyl)-4,5-dihydroisoxazol-3-yl)methyl)imidazo[1,2-a]pyridine-6-carboxamide] | < 50 | < 10 | 96 | 96 | – | – | –
Cn1cc(-c2ncccc2OCC2CC(CNC(=O)c3ccc4nccn4c3)=NO2)cn1 (racemic) [Example 5, N-((5-(((2-(1-methyl-1H-pyrazol-4-yl)pyridin-3-yl)oxy)methyl)-4,5-dihydroisoxazol-3-yl)methyl)imidazo[1,2-a]pyridine-6-carboxamide] | 50 to 250 | < 10 | 47 | 95 | – | – | –
CNC(=O)c1ccc(-c2ncccc2OCC2CC(CNC(=O)c3ccc4nccn4c3)=NO2)cc1F (racemic) [Example 6, N-((5-(((2-(3-fluoro-4-(methylcarbamoyl)phenyl)pyridin-3-yl)oxy)methyl)-4,5-dihydroisoxazol-3-yl)methyl)imidazo[1,2-a]pyridine-6-carboxamide] | > 250 | > 25 | 15 | 80 | – | – | –
O=C(NCC1=NOC(COc2cccnc2-c2cccnc2)C1)c1ccc2nccn2c1 (racemic) [Example 7, N-((5-(([2,3′-bipyridin]-3-yloxy)methyl)-4,5-dihydroisoxazol-3-yl)methyl)-imidazo[1,2-a]pyridine-6-carboxamide] | 50 to 250 | 10 to 25 | 90 | 90 | – | – | –
O=C(NCC1=NOC(COc2cccnc2-c2ccc(Cl)nc2)C1)c1ccc2nccn2c1 (racemic) [Example 8, N-((5-(((6′-chloro-[2,3′-bipyridin]-3-yl)oxy)methyl)-4,5-dihydroisoxazol-3-yl)methyl)imidazo[1,2-a]pyridine-6-carboxamide] | < 50 | 10 to 25 | – | – | – | – | –
O=C(NCC1=NOC(COc2cc(F)cnc2-c2ccc(F)nc2)C1)c1ccc2nccn2c1 (racemic) [Example 9, N-((5-(((5,6′-difluoro-[2,3′-bipyridin]-3-yl)oxy)methyl)-4,5-dihydroisoxazol-3-yl)methyl)imidazo[1,2-a]pyridine-6-carboxamide] | < 50 | 10 to 25 | 88 | 89 | – | – | –
N#Cc1ccc(OCC2CC(CNC(=O)c3ccc4nccn4c3)=NO2)c(-c2ccc(F)nc2)n1 (racemic) [Example 10, N-((5-(((6-cyano-6′-fluoro-[2,3′-bipyridin]-3-yl)oxy)methyl)-4,5-dihydroisoxazol-3-yl)methyl)imidazo[1,2-a]pyridine-6-carboxamide] | 50 to 250 | 10 to 25 | 95 | 95 | – | – | –
Cc1cnc(-c2ccc(F)nc2)c(OCC2CC(CNC(=O)c3ccc4nccn4c3)=NO2)c1 (racemic) [Example 11, N-((5-(((6′-fluoro-5-methyl-[2,3′-bipyridin]-3-yl)oxy)methyl)-4,5-dihydroisoxazol-3-yl)methyl)imidazo[1,2-a]pyridine-6-carboxamide] | < 50 | 10 to 25 | 96 | 95 | – | – | –
Cc1ccc(OCC2CC(CNC(=O)c3ccc4nccn4c3)=NO2)c(-c2ccc(F)nc2)n1 (racemic) [Example 12, N-((5-(((6′-fluoro-6-methyl-[2,3′-bipyridin]-3-yl)oxy)methyl)-4,5-dihydroisoxazol-3-yl)methyl)imidazo[1,2-a]pyridine-6-carboxamide] | < 50 | > 25 | 96 | 95 | – | – | –
O=C(NCC1=NOC(COc2cc(Cl)cnc2-c2cccnc2)C1)c1ccc2nccn2c1 (racemic) [Example 13, N-((5-(((5-chloro-[2,3′-bipyridin]-3-yl)oxy)methyl)-4,5-dihydroisoxazol-3-yl)methyl)imidazo[1,2-a]pyridine-6-carboxamide] | 50 to 250 | < 10 | 95 | 95 | – | – | –
O=C(NCC1=NOC(COc2cc(F)cnc2-c2cccnc2)C1)c1ccc2nccn2c1 (racemic) [Example 15, N-((5-(((5-fluoro-[2,3′-bipyridin]-3-yl)oxy)methyl)-4,5-dihydroisoxazol-3-yl)methyl)imidazo[1,2-a]pyridine-6-carboxamide] | 50 to 250 | – | 99 | 99 | – | – | –
O=C(NCC1=NOC(COc2cccnc2-c2cccnc2)C1)c1ccc2nccn2c1 (single isomer, unassigned) [Example 7b, N-((5-(([2,3′-bipyridin]-3-yloxy)methyl)-4,5-dihydroisoxazol-3-yl)methyl)-imidazo[1,2-a]pyridine-6-carboxamide] | – | – | – | – | > 250 | – | –
O=C(NCC1=NOC(COc2cccnc2-c2ccc(Cl)nc2)C1)c1ccc2nccn2c1 (single isomer, unassigned) [Example 8a, N-((5-(((6′-chloro-[2,3′-bipyridin]-3-yl)oxy)methyl)-4,5-dihydroisoxazol-3-yl)methyl)imidazo[1,2-a]pyridine-6-carboxamide] | – | – | – | – | > 10000 | 10 | 10
N#Cc1ccc(OCC2CC(CNC(=O)c3ccc4nccn4c3)=NO2)c(-c2ccc(F)nc2)n1 (single isomer, unassigned) [Example 10a, N-((5-(((6-cyano-6′-fluoro-[2,3′-bipyridin]-3-yl)oxy)methyl)-4,5-dihydroisoxazol-3-yl)methyl)imidazo[1,2-a]pyridine-6-carboxamide] | < 50 | – | 100 | 100 | – | – | –
N#Cc1ccc(OCC2CC(CNC(=O)c3ccc4nccn4c3)=NO2)c(-c2ccc(F)nc2)n1 (single isomer, unassigned) [Example 10b, N-((5-(((6-cyano-6′-fluoro-[2,3′-bipyridin]-3-yl)oxy)methyl)-4,5-dihydroisoxazol-3-yl)methyl)imidazo[1,2-a]pyridine-6-carboxamide] | – | – | – | – | – | 100 | 100
O=C(NCC1=NOC(COc2cc(Cl)cnc2-c2ccc(F)nc2)C1)c1ccc2nccn2c1 (single isomer, unassigned) [Example 14a, N-((5-(((5-chloro-6′-fluoro-[2,3′-bipyridin]-3-yl)oxy)methyl)-4,5-dihydroisoxazol-3-yl)methyl)imidazo[1,2-a]pyridine-6-carboxamide] | – | – | 93 | 98 | > 250 | – | –
O=C(NCC1=NOC(COc2cc(Cl)cnc2-c2ccc(F)nc2)C1)c1ccc2nccn2c1 (single isomer, unassigned) [Example 14b, N-((5-(((5-chloro-6′-fluoro-[2,3′-bipyridin]-3-yl)oxy)methyl)-4,5-dihydroisoxazol-3-yl)methyl)imidazo[1,2-a]pyridine-6-carboxamide] | – | – | – | – | < 50 | 100 | 98

From US20170204092A1, “4,5-DIHYDROISOXAZOLE DERIVATIVES AS NAMPT INHIBITORS” (AURIGENE DISCOVERY TECHNOLOGIES LIMITED, priority 2014, published 2017)
